Measurements as given in ChEMBL document CHEMBL1201862, “PubChem BioAssay data set” (2004).
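All cell lines were grown in 96-well plates and treated with compound for 48 hours. At the GI50, growth is halved.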 Calls of active or inactive are those of the source. Cut-off read from the data, not from the text of the source: active = GI50 up to about 1.1 µM and inactive = higher.

Legend:
Test in all cases: growth of human tumour cells (NCI), 48 h
[1] = test system: SW-620
[2] = test system: CCRF-CEM
[3] = test system: T47D
[4] = test system: NCI-H23
[5] = test system: 786-0
[6] = test system: HCT-15
[7] = test system: RPMI-8226
[8] = test system: SK-MEL-2
[9] = test system: NCI-H226
[10] = test system: M14
[11] = test system: IGROV-1
[12] = test system: COLO 205
[13] = test system: SF-539
[14] = test system: Hs-578T
[15] = test system: OVCAR-5
[16] = test system: U-251
[17] = test system: KM12
[18] = test system: MDA-N
[19] = test system: HOP-92
[20] = test system: SR

Structure (SMILES)	GI50 [1]	GI50 [2]	GI50 [3]	GI50 [4]	GI50 [5]	GI50 [6]	GI50 [7]	GI50 [8]	GI50 [9]	GI50 [10]	GI50 [11]	GI50 [12]	GI50 [13]	GI50 [14]	GI50 [15]	GI50 [16]	GI50 [17]	GI50 [18]	GI50 [19]	GI50 [20]
Cc1[nH]n(-c2nc(-c3ccccc3)cc(=O)[nH]2)c(=O)c1CCO	> 100 µM (inactive)	> 100 µM (inactive)	> 100 µM (inactive)	> 100 µM (inactive)	> 100 µM (inactive)	> 100 µM	> 100 µM (inactive)	> 100 µM (inactive)	> 100 µM (inactive)	> 100 µM (inactive)	> 100 µM (inactive)	> 100 µM (inactive)	> 100 µM (inactive)	> 100 µM (inactive)	> 100 µM (inactive)	> 100 µM (inactive)	> 100 µM (inactive)	> 100 µM (inactive)	> 100 µM (inactive)	
CC1OC(OC2C(O[C@@H]3C[C@@H]4CC[C@@H]5[C@H](CC[C@]6(C)[C@@H]7[C@H](C[C@@H]56)O[C@]5(CC[C@@H](C)CO5)[C@H]7C)[C@@]4(C)C[C@H]3O)OC(CO)C(OC3OC(CO)C(O)C(O)C3O)C2O)C(O)C(O)C1O (stereo not given in full)	1.67 µM (inactive)	1.92 µM (inactive)	3.66 µM (inactive)	2.03 µM (inactive)	1.73 µM (inactive)	2.17 µM	3.17 µM (inactive)	1.74 µM (inactive)	1.44 µM (inactive)	1.69 µM (inactive)	1.14 µM (inactive)	1.74 µM (inactive)	1.77 µM (inactive)	2.02 µM (inactive)	1.59 µM (inactive)	1.81 µM (inactive)	1.98 µM (inactive)	1.91 µM (inactive)	2.51 µM (inactive)	
Cc1ccc(CCCCCOc2ccc(C3=NCCO3)cc2)s1	> 100 µM (inactive)	> 100 µM (inactive)	> 100 µM (inactive)	> 100 µM (inactive)	> 100 µM (inactive)	> 100 µM	> 100 µM (inactive)	> 100 µM (inactive)	> 100 µM (inactive)	> 100 µM (inactive)	> 100 µM (inactive)	> 100 µM (inactive)		> 100 µM (inactive)	> 100 µM (inactive)	> 100 µM (inactive)	> 100 µM (inactive)	5.68 µM (inactive)		2.84 µM (inactive)
CCCC(C)c1c(Cl)nc(Cl)nc1Cl (stereo not given)	4.23 µM (inactive)	0.189 µM (active)	6.38 µM (inactive)	3.18 µM (inactive)	4.79 µM (inactive)	7.38 µM	5.53 µM (inactive)	23.9 µM (inactive)	4.34 µM (inactive)	1.71 µM (inactive)	14.7 µM (inactive)	4.4 µM (inactive)	5.73 µM (inactive)	9.38 µM (inactive)	21.2 µM (inactive)	9.38 µM (inactive)	2.47 µM (inactive)	4.72 µM (inactive)		4.58 µM (inactive)
Cc1cc(OCc2nn(CN3CCN(C)CC3)c(=S)n2/N=C/c2ccc(-c3ccc(Cl)cc3Cl)o2)ccc1Cl	15.7 µM (inactive)	35.3 µM (inactive)	38 µM (inactive)	39.6 µM (inactive)	90.2 µM (inactive)	28.5 µM	17.1 µM (inactive)	> 100 µM (inactive)	40.4 µM (inactive)	33.7 µM (inactive)	> 100 µM (inactive)		> 100 µM (inactive)	39.6 µM (inactive)	> 100 µM (inactive)	> 100 µM (inactive)	20.3 µM (inactive)	39.3 µM (inactive)	21 µM (inactive)	
COC(=O)[C@]1(c2cc3ccccc3[nH]2)CC2CN(CC(=O)N(C)OC)C1C1OC(C)(C)OC21 (stereo not given in full)	93.3 µM (inactive)	53.8 µM (inactive)	28.6 µM (inactive)	45.8 µM (inactive)	45.9 µM (inactive)	39.9 µM	23.2 µM (inactive)	74.8 µM (inactive)	56 µM (inactive)	41.3 µM (inactive)	59.3 µM (inactive)	31.7 µM (inactive)	> 100 µM (inactive)	> 100 µM (inactive)	> 100 µM (inactive)	54.3 µM (inactive)	29.6 µM (inactive)	49.5 µM (inactive)	47.8 µM (inactive)	
Oc1ccc(SCc2cc(O)ccc2O)cc1	19.1 µM (inactive)	1.79 µM (inactive)	8.39 µM (inactive)	28.5 µM (inactive)	12.8 µM (inactive)	9.55 µM	2.67 µM (inactive)	14.9 µM (inactive)	9.42 µM (inactive)	18.4 µM (inactive)	10.1 µM (inactive)	19.2 µM (inactive)	3.54 µM (inactive)	27.9 µM (inactive)	20.4 µM (inactive)	14.5 µM (inactive)	17.5 µM (inactive)	14.4 µM (inactive)	22.3 µM (inactive)	
O=C(CN1c2ccccc2Sc2ccccc21)n1cnc2ccccc21	> 100 µM (inactive)	73.1 µM (inactive)	49.8 µM (inactive)	77.3 µM (inactive)	52.6 µM (inactive)	99.8 µM	90.4 µM (inactive)	> 100 µM (inactive)	45 µM (inactive)	59.2 µM (inactive)	> 100 µM (inactive)	92.3 µM (inactive)	> 100 µM (inactive)	> 100 µM (inactive)	80 µM (inactive)	43.5 µM (inactive)	59.8 µM (inactive)	> 100 µM (inactive)	30.6 µM (inactive)	
C=C(COC(=O)C(C)C)[C@H]1Oc2ccc(C(C)=O)cc2[C@@H]1OC(=O)C(C)C	> 100 µM (inactive)	> 100 µM (inactive)	> 100 µM (inactive)	> 100 µM (inactive)	> 100 µM (inactive)	> 100 µM	76.4 µM (inactive)	> 100 µM (inactive)	> 100 µM (inactive)	> 100 µM (inactive)	> 100 µM (inactive)	> 100 µM (inactive)	> 100 µM (inactive)	42.6 µM (inactive)	> 100 µM (inactive)	> 100 µM (inactive)	> 100 µM (inactive)	> 100 µM (inactive)		> 100 µM (inactive)
O=P1(Cc2ccccc2)N(Cc2ccccc2)[C@@H]2CCCC[C@H]2N1Cc1ccccc1	10.1 µM (inactive)	4.76 µM (inactive)	5.48 µM (inactive)	9.98 µM (inactive)	13 µM (inactive)	9.91 µM		11.2 µM (inactive)	2.2 µM (inactive)	4.34 µM (inactive)	6.18 µM (inactive)	5.77 µM (inactive)	17 µM (inactive)	10.7 µM (inactive)	11.6 µM (inactive)	11.1 µM (inactive)	5.86 µM (inactive)	6.82 µM (inactive)		2.69 µM (inactive)
CC(=O)N(CN1C(=O)CCC1C(=O)O)c1ccccc1Cl (stereo not given)	> 100 µM (inactive)	> 100 µM (inactive)	> 100 µM (inactive)	> 100 µM (inactive)	> 100 µM (inactive)	> 100 µM	> 100 µM (inactive)	> 100 µM (inactive)	> 100 µM (inactive)	> 100 µM (inactive)	> 100 µM (inactive)	> 100 µM (inactive)	> 100 µM (inactive)	> 100 µM (inactive)	> 100 µM (inactive)	> 100 µM (inactive)	> 100 µM (inactive)	> 100 µM (inactive)	> 100 µM (inactive)	
N=c1c2c3n(c4c(=O)n(-c5ccccc5)c(=S)n(c(=O)n1-c1ccccc1)c24)CCCCC3	> 100 µM (inactive)	> 100 µM (inactive)	55.6 µM (inactive)	> 100 µM (inactive)	> 100 µM (inactive)	> 100 µM		> 100 µM (inactive)	> 100 µM (inactive)	> 100 µM (inactive)	> 100 µM (inactive)	> 100 µM (inactive)	> 89.7 µM (inactive)	> 100 µM (inactive)	> 100 µM (inactive)	> 100 µM (inactive)	> 100 µM (inactive)	> 100 µM (inactive)	> 100 µM (inactive)	
Cc1ccc(C2(c3ccc(Cl)cc3)c3ccccc3C3=NCCN32)cc1 (stereo not given)	10.8 µM (inactive)	4.5 µM (inactive)	15.7 µM (inactive)	14.3 µM (inactive)	13.1 µM (inactive)	11.6 µM	7.16 µM (inactive)	12.2 µM (inactive)	16.3 µM (inactive)	3.7 µM (inactive)	2.15 µM (inactive)	4.6 µM (inactive)		14.2 µM (inactive)	12.5 µM (inactive)	11.5 µM (inactive)	10.7 µM (inactive)	3.37 µM (inactive)	6.04 µM (inactive)	
Cc1ccc(N(C)S(=O)(=O)c2ccccc2)cc1	> 100 µM (inactive)	> 100 µM (inactive)	47.9 µM (inactive)	95.5 µM (inactive)	> 100 µM (inactive)	> 100 µM	59.8 µM (inactive)	> 100 µM (inactive)	> 100 µM (inactive)	> 100 µM (inactive)	> 100 µM (inactive)	> 100 µM (inactive)	> 100 µM (inactive)	> 100 µM (inactive)	> 100 µM (inactive)	> 100 µM (inactive)	> 100 µM (inactive)	> 100 µM (inactive)		84.7 µM (inactive)
O=C1NN=C(c2c[nH]c3ccccc23)CC1NCc1ccccc1 (stereo not given)	> 100 µM (inactive)	> 100 µM (inactive)	> 100 µM (inactive)	> 100 µM (inactive)	> 100 µM (inactive)	> 100 µM	> 100 µM (inactive)	> 100 µM (inactive)	> 100 µM (inactive)	> 100 µM (inactive)	1.01 µM (active)	> 100 µM (inactive)	> 100 µM (inactive)	> 100 µM (inactive)	> 100 µM (inactive)	> 100 µM (inactive)	> 100 µM (inactive)	> 100 µM (inactive)	> 100 µM (inactive)	
